{"source": "paper PMC10539439", "about": "(Pharmacological Reports, 2023)", "assay": "Blood pressure, 24-h telemetric method, normotensive rats", "type": "in vivo, rat", "conditions": "telemetry, 5 mg/kg", "procedure": "The blood pressure of rats treated with the tested compound was measured for a 24 h period after ip treatment (5 mg/kg b.w.) with a special telemetric system Stellar (TSE-Systems, Germany).\nSurgery: The operation was carried out over 30 min under sterile conditions. Rats were anaesthetized with ketamine and xylasine (intramuscular injection: 100 mg/kg and 10 mg/kg). Before surgery and for 7 days after, the animals were also treated with cefuroxime (20 mg/kg/day) via intramuscular injection and ketoprofen (5 mg/kg/day) via ip injection. […] The transmitter was sutured to the peritoneal cavity.\nThe rats were individually caged for 2 weeks to heal after surgical cut. The animals were then placed in pairs in cages to reduce their isolation stress. Blood pressure was measured: before ip administration of the compounds – time 0 min and 24 h thereafter.", "key": {"[1]": {"conditions": "after forteenth administration, time 0, n 6"}, "[2]": {"conditions": "after forteenth administration, time 0.25, n 6"}, "[3]": {"conditions": "after seventh administration, time 0, n 6"}, "[4]": {"conditions": "after seventh administration, time 0.25, n 6"}, "[5]": {"conditions": "after seventh administration, time 0.5, n 6"}, "[6]": {"conditions": "after seventh administration, time 0.75, n 6"}, "[7]": {"conditions": "after seventh administration, time 1, n 6"}, "[8]": {"conditions": "after seventh administration, time 1.25, n 6"}, "[9]": {"conditions": "after seventh administration, time 1.5, n 6"}, "[10]": {"conditions": "after seventh administration, time 1.75, n 6"}, "[11]": {"conditions": "after seventh administration, time 2, n 6"}, "[12]": {"conditions": "after seventh administration, time 3, n 6"}, "[13]": {"conditions": "after seventh administration, time 4, n 6"}, "[14]": {"conditions": "after seventh administration, time 5, n 6"}, "[15]": {"conditions": "after seventh administration, time 6, n 6"}, "[16]": {"conditions": "after seventh administration, time 7, n 6"}, "[17]": {"conditions": "after seventh administration, time 8, n 6"}, "[18]": {"conditions": "after seventh administration, time 9, n 6"}, "[19]": {"conditions": "after seventh administration, time 10, n 6"}, "[20]": {"conditions": "after seventh administration, time 11, n 6"}, "[21]": {"conditions": "after seventh administration, time 12, n 6"}, "[22]": {"conditions": "after seventh administration, time 13, n 6"}, "[23]": {"conditions": "after seventh administration, time 14, n 6"}, "[24]": {"conditions": "after seventh administration, time 15, n 6"}, "[25]": {"conditions": "after seventh administration, time 16, n 6"}, "[26]": {"conditions": "after seventh administration, time 17, n 6"}, "[27]": {"conditions": "after seventh administration, time 18, n 6"}, "[28]": {"conditions": "after seventh administration, time 19, n 6"}, "[29]": {"conditions": "after seventh administration, time 20, n 6"}, "[30]": {"conditions": "after seventh administration, time 21, n 6"}}}
{"smiles": "N=C(N)N/N=C/c1c(Cl)cc(O)cc1Cl", "note": "[4HOGuanabenz]", "values": [{"measurement": "diastolic pressure, mean", "setting": "[1]", "value": 70.25, "unit": "mmHg"}, {"measurement": "systolic pressure, mean", "setting": "[1]", "value": 110.5, "unit": "mmHg"}, {"measurement": "diastolic pressure, mean", "setting": "[2]", "value": 90.75, "unit": "mmHg"}, {"measurement": "systolic pressure, mean", "setting": "[2]", "value": 139.3, "unit": "mmHg"}, {"measurement": "diastolic pressure, mean", "setting": "[3]", "value": 74.83, "unit": "mmHg"}, {"measurement": "systolic pressure, mean", "setting": "[3]", "value": 108.2, "unit": "mmHg"}, {"measurement": "diastolic pressure, mean", "setting": "[4]", "value": 97.5, "unit": "mmHg"}, {"measurement": "systolic pressure, mean", "setting": "[4]", "value": 141.8, "unit": "mmHg"}, {"measurement": "diastolic pressure, mean", "setting": "[5]", "value": 76.75, "unit": "mmHg"}, {"measurement": "systolic pressure, mean", "setting": "[5]", "value": 114.3, "unit": "mmHg"}, {"measurement": "diastolic pressure, mean", "setting": "[6]", "value": 77.5, "unit": "mmHg"}, {"measurement": "systolic pressure, mean", "setting": "[6]", "value": 111.5, "unit": "mmHg"}, {"measurement": "diastolic pressure, mean", "setting": "[7]", "value": 76.75, "unit": "mmHg"}, {"measurement": "systolic pressure, mean", "setting": "[7]", "value": 109.3, "unit": "mmHg"}, {"measurement": "diastolic pressure, mean", "setting": "[8]", "value": 74.25, "unit": "mmHg"}, {"measurement": "systolic pressure, mean", "setting": "[8]", "value": 106.8, "unit": "mmHg"}, {"measurement": "diastolic pressure, mean", "setting": "[9]", "value": 74, "unit": "mmHg"}, {"measurement": "systolic pressure, mean", "setting": "[9]", "value": 107.3, "unit": "mmHg"}, {"measurement": "diastolic pressure, mean", "setting": "[10]", "value": 70.75, "unit": "mmHg"}, {"measurement": "systolic pressure, mean", "setting": "[10]", "value": 102, "unit": "mmHg"}, {"measurement": "diastolic pressure, mean", "setting": "[11]", "value": 67.25, "unit": "mmHg"}, {"measurement": "systolic pressure, mean", "setting": "[11]", "value": 100.5, "unit": "mmHg"}, {"measurement": "diastolic pressure, mean", "setting": "[12]", "value": 74, "unit": "mmHg"}, {"measurement": "systolic pressure, mean", "setting": "[12]", "value": 109, "unit": "mmHg"}, {"measurement": "diastolic pressure, mean", "setting": "[13]", "value": 74.75, "unit": "mmHg"}, {"measurement": "systolic pressure, mean", "setting": "[13]", "value": 109.3, "unit": "mmHg"}, {"measurement": "diastolic pressure, mean", "setting": "[14]", "value": 74.25, "unit": "mmHg"}, {"measurement": "systolic pressure, mean", "setting": "[14]", "value": 110.3, "unit": "mmHg"}, {"measurement": "diastolic pressure, mean", "setting": "[15]", "value": 79.75, "unit": "mmHg"}, {"measurement": "systolic pressure, mean", "setting": "[15]", "value": 113.8, "unit": "mmHg"}, {"measurement": "diastolic pressure, mean", "setting": "[16]", "value": 70.5, "unit": "mmHg"}, {"measurement": "systolic pressure, mean", "setting": "[16]", "value": 113.3, "unit": "mmHg"}, {"measurement": "diastolic pressure, mean", "setting": "[17]", "value": 78.75, "unit": "mmHg"}, {"measurement": "systolic pressure, mean", "setting": "[17]", "value": 116.3, "unit": "mmHg"}, {"measurement": "diastolic pressure, mean", "setting": "[18]", "value": 75.5, "unit": "mmHg"}, {"measurement": "systolic pressure, mean", "setting": "[18]", "value": 119.5, "unit": "mmHg"}, {"measurement": "diastolic pressure, mean", "setting": "[19]", "value": 65.5, "unit": "mmHg"}, {"measurement": "systolic pressure, mean", "setting": "[19]", "value": 106, "unit": "mmHg"}, {"measurement": "diastolic pressure, mean", "setting": "[20]", "value": 75.75, "unit": "mmHg"}, {"measurement": "systolic pressure, mean", "setting": "[20]", "value": 117.3, "unit": "mmHg"}, {"measurement": "diastolic pressure, mean", "setting": "[21]", "value": 65.5, "unit": "mmHg"}, {"measurement": "systolic pressure, mean", "setting": "[21]", "value": 116.8, "unit": "mmHg"}, {"measurement": "diastolic pressure, mean", "setting": "[22]", "value": 79.25, "unit": "mmHg"}, {"measurement": "systolic pressure, mean", "setting": "[22]", "value": 121.5, "unit": "mmHg"}, {"measurement": "diastolic pressure, mean", "setting": "[23]", "value": 74, "unit": "mmHg"}, {"measurement": "systolic pressure, mean", "setting": "[23]", "value": 111.5, "unit": "mmHg"}, {"measurement": "diastolic pressure, mean", "setting": "[24]", "value": 77.25, "unit": "mmHg"}, {"measurement": "systolic pressure, mean", "setting": "[24]", "value": 113.3, "unit": "mmHg"}, {"measurement": "diastolic pressure, mean", "setting": "[25]", "value": 71.5, "unit": "mmHg"}, {"measurement": "systolic pressure, mean", "setting": "[25]", "value": 107.3, "unit": "mmHg"}, {"measurement": "diastolic pressure, mean", "setting": "[26]", "value": 79, "unit": "mmHg"}, {"measurement": "systolic pressure, mean", "setting": "[26]", "value": 122.3, "unit": "mmHg"}, {"measurement": "diastolic pressure, mean", "setting": "[27]", "value": 77, "unit": "mmHg"}, {"measurement": "systolic pressure, mean", "setting": "[27]", "value": 117.5, "unit": "mmHg"}, {"measurement": "diastolic pressure, mean", "setting": "[28]", "value": 77, "unit": "mmHg"}, {"measurement": "systolic pressure, mean", "setting": "[28]", "value": 120.5, "unit": "mmHg"}, {"measurement": "diastolic pressure, mean", "setting": "[29]", "value": 76.25, "unit": "mmHg"}, {"measurement": "systolic pressure, mean", "setting": "[29]", "value": 122.3, "unit": "mmHg"}, {"measurement": "diastolic pressure, mean", "setting": "[30]", "value": 69.25, "unit": "mmHg"}, {"measurement": "systolic pressure, mean", "setting": "[30]", "value": 110, "unit": "mmHg"}]}
